Experimental data published in publication PMC9694544, “Conteltinib (CT-707) in patients with advanced ALK-positive non-small cell lung cancer: a multicenter, open-label, first-in-human phase 1 study” (BMC Medicine, 2022).

System: patients with ALK-positive NSCLC
Assay: Phase 1 safety assessment (TRAEs by CTCAE 4.03, DLT, MTD, RP2D)
Type: in vivo, human
Protocol: In the dose-escalation phase, the dose was escalated sequentially from a low to a high level with a 3 + 3 dose-escalation scheme based on the modified Fibonacci method. The starting dose for conteltinib was 50 mg orally quaque die (QD). Dose escalation proceeded to the next six cohorts of 100 mg, 200 mg, 300 mg, 450 mg, 600 mg, and 800 mg QD. For each dose, there was a PK lead-in phase where a single dose was given 7 days before cycle 1 day 1. Then, each dose was taken continuously in a 28-day cycle. The first cycle was for dose-limiting toxicity (DLT) investigation. When one of three patients experienced a DLT in a dose cohort, three additional patients were enrolled in the same dose cohort to assess the dose level in a total of six patients. All patients received conteltinib until disease progression, unacceptable toxicity, or withdrawal of consent. Patients received follow-up safety assessments for 30 days (±7 days) after the last conteltinib dose.
In the dose-expansion phase, each dose was taken continuously in a 28-day cycle. At the end of each cycle, a safety evaluation was conducted. If patients met the criteria to enter the next cycle, treatment with conteltinib was continued for subsequent cycles. All patients received conteltinib until disease progression, unacceptable toxicity, or withdrawal of consent. Patients received follow-up safety assessments for 30 days (±7 days) after the last dose of conteltinib.
The safety of conteltinib was assessed in safety set (SS) which was based on the National Cancer Institute Common Terminology Criteria for Adverse Events (CTCAE) version 4.03, laboratory tests, vital signs, ECG, and clinical observations. […] Adverse events (AEs) were judged to be treatment-related or not by investigators.
DLTs were AEs occurring in the first cycle of treatment (28 days) that were attributed to conteltinib, and the criteria were grade 4 neutropenia lasting ≥ 7 days, febrile neutropenia, grade 3 thrombocytopenia, grade 3 non-hematologic toxicity, and any conteltinib-related toxicity resulting in treatment delay > 2 weeks or discontinuation of conteltinib treatment at the assigned dose level. Besides, grade 3 nausea, vomiting, or diarrhea for ≥ 3 days or grade 4 nausea, vomiting, or diarrhea of any duration was considered as a DLT. The MTD was defined as the dose of conteltinib that would be closest to but not higher than a 33% probability of a DLT.

## COc1cc(N2CCC(N3CCN(C)CC3)CC2)ccc1Nc1nc2c(c(Nc3ccccc3S(=O)(=O)NC(C)C)n1)CCN2 [Conteltinib]
800 mg QD (n=4), Grade ≥ 3
  TRAE Hypertriglyceridemia: 0 (0.0) n (%)
  TRAE Hyperuricemia: 0 (0.0) n (%)
  TRAE Hypoalbuminemia: 0 (0.0) n (%)
  TRAE Nausea: 0 (0.0) n (%)
  TRAE Proteinuria: 0 (0.0) n (%)
  TRAE Serum creatinine elevated: 0 (0.0) n (%)
  TRAE Vomiting: 0 (0.0) n (%)
  TRAE Weight loss: 0 (0.0) n (%)
  TRAE γ-GGT elevated: 0 (0.0) n (%)
800 mg QD cohort
  DLTs: No DLTs were observed
64 patients, impaired liver function
  patients with permanent discontinuation due to TRAE: 3.1%
64 patients, serum creatinine elevated and impaired liver function
  patients with TRAEs leading to conteltinib interruption: 6.3%
64 patients, serum creatinine elevated, neutropenia, impaired liver function
  patients with TRAEs leading to dose reduction: 4.7%
SS, 64 patients
  patients with grade ≥ 3 TRAEs: 14.1%
SS, 64 patients, all grades
  TRAE ALT elevated: 34.4%
  TRAE AST elevated: 39.1%
  TRAE Abdominal pain: 26.6%
  TRAE Abdominal pain upper: 17.2%
  TRAE Appetite decreased: 18.75%
  TRAE Conjugated bilirubin elevated: 10.9%
  TRAE Diarrhea: 71.9%
  TRAE Hypercholesterolemia: 12.5%
  TRAE Hyperglycemia: 15.6%
  TRAE Hypertriglyceridemia: 23.4%
  TRAE Hyperuricemia: 31.25%
  TRAE Hypoalbuminemia: 17.2%
  TRAE Nausea: 37.5%
  TRAE Proteinuria: 21.9%
  TRAE Serum creatinine elevated: 45.3%
  TRAE Vomiting: 35.9%
  TRAE Weight loss: 28.1%
  TRAE γ-GGT elevated: 32.8%
  patients with TRAEs: 90.6%
SS, 64 patients, grade ≥ 3
  TRAE Conjugated bilirubin elevated: 1.6%
  TRAE Diarrhea: 3.1%
  TRAE Serum creatinine elevated: 1.6%
  TRAE γ-GGT elevated: 7.8%
Total (n=64), All grade
  Patients with any TRAE: 58 (90.6) n (%)
  TRAE ALT elevated: 22 (34.4) n (%)
  TRAE AST elevated: 25 (39.1) n (%)
  TRAE Abdominal pain: 17 (26.6) n (%)
  TRAE Abdominal pain upper: 11 (17.2) n (%)
  TRAE Appetite decreased: 12 (18.8) n (%)
  TRAE Conjugated bilirubin elevated: 7 (10.9) n (%)
  TRAE Diarrhea: 46 (71.9) n (%)
  TRAE Hypercholesterolemia: 8 (12.5) n (%)
  TRAE Hyperglycemia: 10 (15.6) n (%)
  TRAE Hypertriglyceridemia: 15 (23.4) n (%)
  TRAE Hyperuricemia: 20 (31.3) n (%)
  TRAE Hypoalbuminemia: 11 (17.2) n (%)
  TRAE Nausea: 24 (37.5) n (%)
  TRAE Proteinuria: 14 (21.9) n (%)
  TRAE Serum creatinine elevated: 29 (45.3) n (%)
  TRAE Vomiting: 23 (35.9) n (%)
  TRAE Weight loss: 18 (28.1) n (%)
  TRAE γ-GGT elevated: 21 (32.8) n (%)
Total (n=64), Grade 1–2
  Patients with any TRAE: 58 (90.6) n (%)
  TRAE ALT elevated: 22 (34.4) n (%)
  TRAE AST elevated: 25 (39.1) n (%)
  TRAE Abdominal pain: 17 (26.6) n (%)
  TRAE Abdominal pain upper: 11 (17.2) n (%)
  TRAE Appetite decreased: 12 (18.8) n (%)
  TRAE Conjugated bilirubin elevated: 6 (9.4) n (%)
  TRAE Diarrhea: 44 (68.8) n (%)
  TRAE Hypercholesterolemia: 8 (12.5) n (%)
  TRAE Hyperglycemia: 10 (15.6) n (%)
  TRAE Hypertriglyceridemia: 15 (23.4) n (%)
  TRAE Hyperuricemia: 20 (31.3) n (%)
  TRAE Hypoalbuminemia: 11 (17.2) n (%)
  TRAE Nausea: 24 (37.5) n (%)
  TRAE Proteinuria: 14 (21.9) n (%)
  TRAE Serum creatinine elevated: 28 (43.8) n (%)
  TRAE Vomiting: 23 (35.9) n (%)
  TRAE Weight loss: 18 (28.1) n (%)
  TRAE γ-GGT elevated: 16 (25.0) n (%)
Total (n=64), Grade ≥ 3
  Patients with any TRAE: 9 (14.1) n (%)
  TRAE ALT elevated: 0 (0.0) n (%)
  TRAE AST elevated: 0 (0.0) n (%)
  TRAE Abdominal pain: 0 (0.0) n (%)
  TRAE Abdominal pain upper: 0 (0.0) n (%)
  TRAE Appetite decreased: 0 (0.0) n (%)
  TRAE Conjugated bilirubin elevated: 1 (1.6) n (%)
  TRAE Diarrhea: 2 (3.1) n (%)
  TRAE Hypercholesterolemia: 0 (0.0) n (%)
  TRAE Hyperglycemia: 0 (0.0) n (%)
  TRAE Hypertriglyceridemia: 0 (0.0) n (%)
  TRAE Hyperuricemia: 0 (0.0) n (%)
  TRAE Hypoalbuminemia: 0 (0.0) n (%)
  TRAE Nausea: 0 (0.0) n (%)
  TRAE Proteinuria: 0 (0.0) n (%)
  TRAE Serum creatinine elevated: 1 (1.6) n (%)
  TRAE Vomiting: 0 (0.0) n (%)
  TRAE Weight loss: 0 (0.0) n (%)
  TRAE γ-GGT elevated: 5 (7.8) n (%)
dose-expansion phase
  DLTs: No DLTs were observed
Doses 50 to 800 mg QD
  MTD: not reached
In vivo
  deaths during treatment: No patients died
This study
  rash: 6.25%
  visual effects: 1.6%
